Test results taken from US10106565B2 (priority 2008, dated 2018).

Legend:
human monocytes [1] = assay: Differentiation of monocytes in osteoclasts (M-CSF and sRANK-Ligand); format: cell-based
Method: PBMC from adult healthy volunteers are prepared as described in example 1.
Monocytes are then purified by negative selection using a kit containing a mixture of mouse anti-human mAbs and superparamagnetic polystyrene beads coated with a human anti-mouse IgG mAbs, according to the manufacturer's instructions (Dynal). The cells obtained after the purification are >90% pure.
Pure monocytes are activated or not during 6 hours with 20 μM of dendrimer Gc1. After three washings, activated and not activated monocytes are cultured for 21 days in α-MEM complete medium, i.e. supplemented with 10% of heat inactivated fetal calf serum (FCS) (Invitrogen), 2 mM L-glutamine, 100 U/mL penicillin and 100 μg/mL streptomycin (Cambrex Bioscience) in presence or not of 20 μM of dendrimer Gc1. To generate osteoclasts, 50 ng/mL of M-CSF (PeproTech) and 30 ng/mL of sRANK-Ligand (PeproTech) are added to the culture medium. Each three days, half medium is changed and 25 ng/mL of M-CSF and 100 ng/mL of sRANK-Ligand are added. At day 21, the cells are fixed and stained with the leucocyte phosphatase acid kit according to the manufacturer's instructions (Sigma-Aldrich).

CD4+ T cells = assay: Intracellular detection of IL10 in CD4+ T cells after MLR; format: cell-based, human; conditions: PBL:monocytes 4:1, 5 hours re-stimulation; compared to MLR with class-monocytes
Method: Six days following the primary stimulation with one of the differently activated monocytes at a ratio of PBL:monocytes of 4:1, cells were restimulated with 10000 anti-CD 3/anti-CD28 beads for 5 hours (according to the technical description by J. P. Edwards et al., (2006) J Leukoc Biol 80, 1298-1307) and with 10 μg/mL Brefeldin A (Sigma-Aldrich) to inhibit cytokine secretion. Cells are then harvested, washed with PBS and incubated 15 minutes at 4° C. with mouse mAb anti-human CD4-PE (clone 13B8.2, Beckman-Coulter) in PBS with 5% FCS. Cells washed twice, are then fixed by 2% paraformaldehyde in PBS and permeabilized with 1% saponin in PBS. Intracellular staining is performed with AlloPhycoCyanin-conjugated rat anti-human IL10 (clone JES3-19F1, BD Bioscience) for 30 minutes at 4° C. in PBS with 1% saponin and analyzed by flow cytometry. Each condition is done in triplicate and results are expressed as the mean±SD. Intracellular IL10 mean fluorescence intensity (mfi) means across the differently activated monocytes are compared by one-way analysis of variance, the comparisons between CD4^+/CFSE^− and CD4^+/CFSE^+ cells are done with Student's t-test using Sigma Stat software (Systat Software).

human monocytes [2] = assay: Flow cytometry phenotype of dendrimer-activated monocytes (surface markers); format: cell-based; conditions: 20 μM, compared with alt- and class-monocytes
Method: For the functional experiments, freshly purified monocytes are cultured in 6-well plates. The cells are stimulated for 24 hours (immunophenotyping by flow cytometry analyses, MLR) or 96 hours (CD206 detection) with different stimuli or remain untreated (control). Dendrimer-activated monocytes (da-monocytes) are obtained with 20 μM of the dendrimer Gc1, alternatively-activated monocytes (alt-monocytes) with 10 U/mL recombinant human IL4 (Peprotech). The classical activation of monocytes is obtained by priming the cells over night (18 hours) with 100 U/mL of human recombinant IFN-γ (R&D Systems) and, after a washing step in PBS, by stimulation with 10 ng/mL LPS from E. coli 011/B4 strain (InvivoGen) for the remaining 6 hours or […].
Flow cytometry is performed on a LSR-II cytometer (BD Biosciences). The data are analyzed with FACSDiva (BD Biosciences) or WinMDI softwares. The expression of surface markers is performed using mouse anti-human fluorochrome-conjugated mAbs specific for MHC class II-FITC (clone Tü36), CD86-PE (clone 2331), MHC class I-PE-Cy5 (clone G46-2.6) and CD13-PE (clone WM15) from BD Biosciences and specific for CD64-FITC (clone 22) and CD206-PE (clone 3.29B1.10) from Beckman-Coulter. Appropriate isotype-matched antibodies are used as negative control.

human monocytes [3] = assay: Affymetrix genechip transcriptional profile of monocytes activated by dendrimer; format: cell-based; conditions: 20 μM, 6 hours, vs untreated monocytes
Method: Peripheral Blood Mononuclear Cells (PBMC) from adult healthy volunteers are prepared as described in example 1.
Monocytes are then purified by positive selection using microbeads conjugated with anti-CD14 mAb, according to the manufacturer's instructions (Miltenyi Biotec). The cells obtained after the purification are >95% pure. The CD14 negative fraction is collected as Peripheral Blood Lymphocytes (PBL).
Monocytes are cultured at a final concentration of 1×10^6 cells/mL in complete RPMI 1640 medium (as described in example 1.1).
For genechip analysis, 10×10^6 monocytes from 3 donors (and from 3 more donors for quantitative PCR) are cultured in 25 cm^2 dishes. They are stimulated with 20 μM of dendrimer for 6 hours or remain untreated (control cells).
Total RNA are extracted from 10×10^6 monocytes using TRIzol™ Reagent (Invitrogen), according to the manufacturer's instructions. The quality and integrity of the RNA obtained are assessed by using an Agilent 2100 Bioanalyser (Agilent Technologies) after a denaturating step at 70° C. for 2 minutes. cRNA are prepared according to one-Cycle Target Labelling protocol (Affymetrix) starting from 1 μg of total RNA.
cRNA are fragmented and hybridized to Affymetrix HG-U133 plus 2.0 arrays. […] Monocytes from 3 donors are analyzed after 6 hour incubation in the presence or absence of the dendrimer Gc1. […]

**Q.** What does the source list for `CN(/N=C/c1ccc(OP2(Oc3ccc(/C=N/N(C)P(=S)(Oc4ccc(CCN(CP(=O)(O)O)CP(=O)(O)O)cc4)Oc4ccc(CCN(CP(=O)(O)O)CP(=O)(O)O)cc4)cc3)=NP(Oc3ccc(/C=N/N(C)P(=S)(Oc4ccc(CCN(CP(=O)(O)O)CP(=O)(O)O)cc4)Oc4ccc(CCN(CP(=O)(O)O)CP(=O)(O)O)cc4)cc3)(Oc3ccc(/C=N/N(C)P(=S)(Oc4ccc(CCN(CP(=O)(O)O)CP(=O)(O)O)cc4)Oc4ccc(CCN(CP(=O)(O)O)CP(=O)(O)O)cc4)cc3)=NP(Oc3ccc(/C=N/N(C)P(=S)(Oc4ccc(CCN(CP(=O)(O)O)CP(=O)(O)O)cc4)Oc4ccc(CCN(CP(=O)(O)O)CP(=O)(O)O)cc4)cc3)(c3ccc(/C=N/N(C)P(=S)(Oc4ccc(CCN(CP(=O)(O)O)CP(=O)(O)O)cc4)Oc4ccc(CCN(CP(=O)(O)O)CP(=O)(O)O)cc4)cc3)=N2)cc1)P(=S)(Oc1ccc(CCN(CP(=O)(O)O)CP(=O)(O)O)cc1)Oc1ccc(CCN(CP(=O)(O)O)CP(=O)(O)O)cc1` (stereo not drawn) [Gc1]?
**A.** differentiation of human monocytes in osteoclasts (human monocytes [1]; 20 μM added in the culture medium, 21 days): inhibits; differentiation of human monocytes in osteoclasts (human monocytes [1]; monocytes pre-incubated with 20 μM during 6 hours, then rinsed): inhibition; production of IL10 by divided CD4+ T cells in MLR with da-monocytes (CD4+ T cells): significantly enhanced; cell surface expression of CD13 (aminopeptidase N) (human monocytes [2]; 24 hours): Class-monocytes express a higher level of CD13 than alt- and da-monocytes; cell surface expression of CD64 (FcγRI) (human monocytes [2]; 24 hours): overexpressed in class-monocytes, but not in alt- or da-monocytes; expression of HLA-DR, HLA-A,B,C and CD86 (antigen-presenting capacity) (human monocytes [2]; 24 hours): poor APC; cell surface expression of mannose receptor MRC1 (CD206) (human monocytes [2]; 96 hours): strongly enhanced; number of genes under-expressed by da-monocytes (human monocytes [3]; fold change ≤−2.0 in at least two of three donors): 62; number of genes over-expressed by da-monocytes (human monocytes [3]; fold change ≥2.0 in at least two of three donors): 78
